{"source": "patent US20070134725A1", "about": "“METHOD TO PREDICT RISK OF BPH PROGRESSION” (Baylor College of Medicine, priority 2004, published 2007)", "key": {"male subjects with BPH [1]": {"test_system": "male subjects with BPH", "experiment": "Phase III placebo-controlled studies of dutasteride in men with BPH (ARIA 3001, 3002, 3003); Cox regression nomogram for AUR/SI within 2 years", "format": "in vivo, human", "source_text": "The use of single parameters to predict the risk of BPH progression or to determine the relative reduction potentially gained with 5ARI therapy is not optimal. Nomograms are prediction tools optimized for accuracy that utilize multiple parameters to predict specific outcomes. The objective of this study was to develop a prediction model, or nomogram, that would predict the probability that a person with BPH would experience AUR or require surgical intervention (SI) within two years, using data from the recently completed Phase III studies of dutasteride versus placebo in men with BPH (Roehrborn et al. 2002).\nData from three two-year multicenter, placebo-controlled, double-blind studies evaluating dutasteride 0.5 mg/day (n=2,167) or placebo (n=2,158) in male subjects with BPH were utilized to develop a nomogram. […] Most of the 4,325 subjects randomly assigned to receive either dutasteride or placebo completed 2 years of treatment (70% and 67%, respectively).\nSubjects were characterized at baseline by a number of parameters, including AUA symptom index (AUA-SI) score, BPH impact index (BII) score, prostate volume, prostate specific antigen (PSA) level, maximum urinary flow rate (Qmax), and prior use of selective α1 blockers. Cox proportional hazards regression was used to relate these baseline variables to the future probability of developing AUR or requiring surgical intervention within 2 years. The nomogram was internally validated with bootstrapping, a re-sampling technique, to assess its discrimination and calibration. Discrimination was quantified as the concordance index, which is rated from 0.5 to 1.00. Calibration was assessed visually, by plotting observed proportions against predicted probabilities, again using bootstrapping to reduce over-fit bias.\nWith these benefits in mind, a nomogram was constructed to predict the risk of BPH progression using data from a phase III pivotal trial (ARIA 3001, 3002, 3003) used to establish the safety and efficacy of dutasteride prior to FDA approval. For each individual predictive parameter, points are awarded by drawing a perpendicular line to the point scale along the top of the nomogram. After all points are added, a perpendicular line is drawn from the bottom, total points scale to the line below, indicating the 2 year probability of a patient's developing retention or requiring BPH-related surgery within two years. Note that the use of dutasteride (versus placebo) leads to a total point score reduced by approximately 20 to 25 points, which translates to a 50% relative risk reduction across the entire range of total points for any patient. […] Thus, a 50% relative risk reduction over two years translates into about 13 to 14% absolute risk reduction over this very short time frame, with a much greater benefit likely experienced over time."}, "male subjects with BPH [2]": {"test_system": "male subjects with BPH", "details": "cited from earlier work"}, "men with LUTS and BPH [3]": {"test_system": "men with LUTS and BPH", "experiment": "MTOPS trial of finasteride and doxazosin, alone or together, in men with BPH; Cox/competing risks models", "format": "in vivo, human", "details": "for Hazard Ratio: multivariable Cox model; for risk of AUR and/or SI in treated patients / risk of symptom progression in treated patients: within 4 years, result in words", "source_text": "Medical Therapy of Prostatic Symptoms (MTOPS) is a clinical research study sponsored by the National Institutes of Health (NIH). The study tested whether the oral drugs finasteride (Proscar®) and doxazosin (Cardura®), alone or together, can further delay or prevent further prostate growth in men with BPH.\nMTOPS is the largest and longest study to test whether the drugs can stop noncancerous prostate growth. Seventeen U.S. medical centers recruited […] men diagnosed with symptomatic BPH between December 1995 and March 1998. The study doctors continued to follow these men through November 2001 on a quarterly basis. In addition to the clinical progression of BPH, MTOPS included evaluations of prostate volume by ultrasound, prostate histopathobiology, quality of life and urodynamics. (Funding by NIDDK (UO1-DK-46472), 1992-2002; IND 43,564; http://www.bsc.gwu.edu/mtops/; McConnell et al., 2003).)\nHerein described is the development of a nomogram similar to that shown in Examples 1 and 3 using data from the MTOPS study. In this double-blind, randomized, placebo-controlled trial, 3047 men with moderate-to-severe urinary symptoms and enlarged prostate glands were randomized to receive either 1) doxazosin+placebo; 2) finasteride+placebo; 3) doxazosin+finasteride; or 4) placebo+placebo for a minimum of four and a maximum of six years, with an average follow-up of five years. Complete data on outcomes were available for 3047 men and frozen sera was archived at baseline.\n(§1) Intent-to-treat, competing risks methodology was employed to model the 3,047 men with LUTS and BPH randomized to the MTOPS trial, a 5 year, randomized, placebo-controlled study evaluating the efficacy and safety of BPH medical therapy. These men were characterized at baseline by a number of parameters, including patient age and race, AUA symptom index (AUA-SI), BPH Impact Index (BII), total prostate and TZ volume measured by ultrasound, total prostate specific antigen (PSA) level, maximum flow rate (Qmax) and post-void residual (PVR) urine volume. Cox proportional hazards regression was used to relate these baseline variables to their future probability of AUR/SI within 4 years. The nomogram was internally validated with bootstrapping to assess its discrimination and calibration. Discrimination was quantified as the concordance index (CI).\nas §1, with “used” for “employed”, “(Qmax),” for “(Qmax)”, “reaching a symptom progression endpoint” for “AUR/SI”\nTable 13 provides P values for a series of predictors, including BPSA levels, in a multivariate competing risks model for AUR and/or SI. BPSA is a novel serum marker for BPH, and independently predicts the risk of AUR and/or surgery in men with BPH. Thus, nomogram tools that incorporate BPSA levels may improve the ability to manage patients with BPH."}, "men with LUTS and BPH [4]": {"test_system": "men with LUTS and BPH", "parameters": "Creatinine Rise, endpoint events: unit not given here", "details": "entire MTOPS cohort, number of events per treatment group; cited from earlier work"}, "[5]": {"test_system": "men with moderate-to-severe urinary symptoms and enlarged prostate glands", "details": "PLESS, 5 mg finasteride, four years; cited from earlier work"}, "[6]": {"details": "dutasteride 0.5 mg/day vs placebo, over 24 months"}, "[7]": {"details": "AUR/SI within 4 years, intent-to-treat, competing risks"}, "[8]": {"details": "symptom progression (4-point rise in AUA-SI) within 4 years"}}}
{"smiles": "C[C@]12C=CC(=O)N[C@@H]1CC[C@@H]1[C@@H]2CC[C@]2(C)[C@@H](C(=O)Nc3cc(C(F)(F)F)ccc3C(F)(F)F)CC[C@@H]12", "note": "[dutasteride]", "values": [{"measurement": "relative risk reduction across the entire range of total points", "setting": "male subjects with BPH [1]; 2-year AUR/SI nomogram", "result": 50, "unit": "%"}, {"measurement": "Hazard Ratio (95% CIs)", "setting": "male subjects with BPH [1]; full multivariate Cox model, AUR or surgical intervention within 2 years, dutasteride vs placebo group", "result": "0.50 (0.37, 0.66)"}, {"measurement": "absolute risk reduction", "setting": "male subjects with BPH [1]; over two years, most severely affected patients (27% maximum risk)", "result": "13 to 14", "unit": "%"}, {"measurement": "reduction of nomogram total point score", "setting": "male subjects with BPH [1]; use of dutasteride versus placebo, 2-year AUR/SI nomogram", "result": "20 to 25", "unit": "points"}, {"measurement": "relative risk reduction of AUR and/or surgical intervention", "setting": "male subjects with BPH [1]; vs placebo, at endpoint", "result": 50, "unit": "%"}, {"measurement": "patients who had experienced AUR and/or surgical intervention at endpoint", "setting": "male subjects with BPH [2]; at endpoint, 2-year studies", "result": 3.5, "unit": "%"}, {"measurement": "reduction in the need for BPH-related surgery", "setting": "male subjects with BPH [2]; [6]", "result": 48, "unit": "%"}, {"measurement": "reduction in the risk of AUR", "setting": "male subjects with BPH [2]; [6]", "result": 57, "unit": "%"}]}
{"smiles": "CC(C)(C)NC(=O)[C@H]1CC[C@H]2[C@@H]3CC[C@H]4NC(=O)C=C[C@]4(C)[C@H]3CC[C@]12C", "note": "[finasteride]", "values": [{"measurement": "Hazard Ratio", "setting": "men with LUTS and BPH [3]; [7]", "result": 0.3506}, {"measurement": "Hazard Ratio", "setting": "men with LUTS and BPH [3]; [8]", "result": 0.6961}, {"measurement": "risk of AUR and/or SI in treated patients", "setting": "men with LUTS and BPH [3]", "result": "reduced risk of AUR and/or SI"}, {"measurement": "risk of symptom progression in treated patients", "setting": "men with LUTS and BPH [3]", "result": "significantly reduced risk of symptom progression"}, {"measurement": "AUA Rise, endpoint events", "setting": "men with LUTS and BPH [4]", "result": 74}, {"measurement": "BPH Invasive Therapy, events", "setting": "men with LUTS and BPH [4]", "result": 15}, {"measurement": "Creatinine Rise, endpoint events", "setting": "men with LUTS and BPH [4]", "result": 0}, {"measurement": "Incontinence, endpoint events", "setting": "men with LUTS and BPH [4]", "result": 9}, {"measurement": "Retention, endpoint events", "setting": "men with LUTS and BPH [4]", "result": 6}, {"measurement": "Total endpoint events", "setting": "men with LUTS and BPH [4]", "result": 89}, {"measurement": "UTI/urosepsis, endpoint events", "setting": "men with LUTS and BPH [4]", "result": 0}, {"measurement": "incidence of BPH-related surgery", "setting": "[5]", "result": 5, "unit": "%"}, {"measurement": "incidence of precipitated AUR", "setting": "[5]", "result": 2, "unit": "%"}, {"measurement": "incidence of spontaneous AUR", "setting": "[5]", "result": 1, "unit": "%"}, {"measurement": "overall incidence of AUR", "setting": "[5]", "result": 4, "unit": "%"}]}
{"smiles": "COc1cc2nc(N3CCN(C(=O)C4COc5ccccc5O4)CC3)nc(N)c2cc1OC", "note": "(stereo not shown) [doxazosin]", "values": [{"measurement": "Hazard Ratio", "setting": "men with LUTS and BPH [3]; [7]", "result": 0.7154}, {"measurement": "Hazard Ratio", "setting": "men with LUTS and BPH [3]; [8]", "result": 0.5278}, {"measurement": "risk of AUR and/or SI in treated patients", "setting": "men with LUTS and BPH [3]", "result": "not"}, {"measurement": "risk of symptom progression in treated patients", "setting": "men with LUTS and BPH [3]", "result": "significantly reduced risk of symptom progression"}, {"measurement": "AUA Rise, endpoint events", "setting": "men with LUTS and BPH [4]", "result": 59}, {"measurement": "BPH Invasive Therapy, events", "setting": "men with LUTS and BPH [4]", "result": 41}, {"measurement": "Creatinine Rise, endpoint events", "setting": "men with LUTS and BPH [4]", "result": 0}, {"measurement": "Incontinence, endpoint events", "setting": "men with LUTS and BPH [4]", "result": 11}, {"measurement": "Retention, endpoint events", "setting": "men with LUTS and BPH [4]", "result": 13}, {"measurement": "Total endpoint events", "setting": "men with LUTS and BPH [4]", "result": 85}, {"measurement": "UTI/urosepsis, endpoint events", "setting": "men with LUTS and BPH [4]", "result": 2}]}
